Measurements reported in US9388162B2, “Substituted morphinans and the use thereof” (Purdue Pharma L.P., priority 2012, dated 2016).

How the values were obtained:
[1] = molecular target: recombinant human kappa opioid receptor (κ) (Homo sapiens (Human), UniProt P41145); assay: κ-opioid receptor radioligand dose displacement binding assay ([3H]-U69,593); settings: mean ± SEM, read-out: Binding Affinity Opioid Receptor Ki (nM) [mean ± SEM] κ
Procedure: (§1) Membranes from HEK-293 cells, CHO or U-2 OS cells expressing the recombinant human kappa opioid receptor (κ) were prepared by lysing cells in ice cold hypotonic buffer (2.5 mM MgCl2, 50 mM HEPES, pH 7.4) (10 mL/10 cm dish) followed by homogenization with a tissue grinder/Teflon pestle. Membranes were collected by centrifugation at 30,000×g for 15 min at 4° C. and pellets were resuspended in hypotonic buffer to a final concentration of 1-3 mg/mL. Protein concentrations were determined using the BioRad protein assay reagent with bovine serum albumen as standard. Aliquots of κ receptor membranes were stored at −80° C.
Radioligand dose displacement assays used 0.4 nM [^3H]-U69,593 (GE Healthcare, Piscataway, N.J.; 40 Ci/mmole) with 15 μg membrane protein (recombinant κ opioid receptor expressed in HEK 293 cells; in-house prep) in a final volume of 200 μl binding buffer (5% DMSO, 50 mM Trizma base, pH 7.4). Non-specific binding was determined in the presence of 10 μM unlabeled naloxone or U69,593. All reactions were performed in 96-well polypropylene plates for 1 hour at a temperature of about 25° C. Binding reactions were terminated by rapid filtration onto 96-well Unifilter GF/C filter plates (Perkin Elmer, Shelton, Conn.) presoaked in 0.5% polyethylenimine (Sigma). Harvesting was performed using a 96-well tissue harvester (Perkin Elmer, Shelton, Conn.) followed by five filtration washes with 200 μl ice-cold binding buffer. Filter plates were subsequently dried at 50° C. for 1-2 hours. Fifty μl/well scintillation cocktail (Perkin Elmer, Shelton, Conn.) was added and plates were counted in a Packard Top-Count for 1 min/well.
(§2) The following tables provide results on the efficacy of binding and activity response of exemplified Compounds of the Invention at the μ- and κ-opioid receptors. In TABLE 3, binding affinity of certain Compounds of the Invention to the μ- and κ-opioid receptors was determined as described above. In TABLE 4, activity response of certain Compounds of the Invention to the μ- and κ-opioid receptors was determined as described above for functional assays using HEK-293 cells. In TABLE 5, activity response of certain Compounds of the Invention to the μ- and κ-opioid receptors was determined as described above using U-2 OS cells.

[2] = molecular target: T1, κ opioid receptor (Homo sapiens (Human), UniProt P41145); assay: κ-opioid receptor [35S]GTPγS functional assay, HEK-293 cells; assay type: biochemical; settings: κ GTP; for EC50: read-out: Activity Response κ EC50 (nM) [mean ± SEM]; for Emax: relative to U69,593, read-out: Activity Response κ Emax (%)
Procedure: as §1
Functional [^35S]GTPγS binding assays were conducted as follows. κ opioid receptor membrane solution was prepared by sequentially adding final concentrations of 0.026 μg/μl κ membrane protein (in-house), 10 μg/mL saponin, 3 μM GDP and 0.20 nM [^35S]GTPγS to binding buffer (100 mM NaCl, 10 mM MgCl2, 20 mM HEPES, pH 7.4) on ice. The prepared membrane solution (190 μl/well) was transferred to 96-shallow well polypropylene plates containing 10 μl of 20× concentrated stock solutions of agonist prepared in DMSO. Plates were incubated for 30 min at a temperature of about 25° C. with shaking. Reactions were terminated by rapid filtration onto 96-well Unifilter GF/B filter plates (Perkin Elmer, Shelton, Conn.) using a 96-well tissue harvester (Packard) and followed by three filtration washes with 200 μl ice-cold binding buffer (10 mM NaH2PO4, 10 mM Na2HPO4, pH 7.4). Filter plates were subsequently dried at 50° C. for 2-3 hours. Fifty μl/well scintillation cocktail (Perkin Elmer, Shelton, Conn.) was added and plates were counted in a Packard Top-Count for 1 min/well.
κ GTP EC50 is the concentration of a compound providing 50% of the maximal response for the compound at a κ receptor.
κ GTP Emax (%) is the maximal effect elicited by a compound relative to the effect elicited by U69,593.
as §2, with “In” for “The following tables provide results on the efficacy of binding and activity response of exemplified Compounds of the Invention at the μ- and κ-opioid receptors. In”

[3] = molecular target: T2, μ-opioid receptors (Homo sapiens (Human), UniProt P35372); assay: μ-opioid receptor [35S]GTPγS functional assay, HEK-293 cells; assay type: biochemical; settings: μ GTP; for EC50: read-out: Activity Response μ EC50 (nM) [mean ± SEM]; for Emax: relative to DAMGO, read-out: Activity Response μ Emax (%)
Procedure: [^35S]GTPγS functional assays were conducted using freshly thawed μ-receptor membranes prepared from a cell line expressing recombinant μ opioid receptor in a HEK-293, CHO or U-2 OS cell background or purchased from a commercial source (Perkin Elmer, Shelton, Conn.; or DiscovRx, Fremont, Calif.). Assay reactions were prepared by sequentially adding the following reagents to binding buffer (100 mM NaCl, 10 mM MgCl2, 20 mM HEPES, pH 7.4) on ice (final concentrations indicated): membrane protein (0.026 mg/mL), saponin ([…]), GDP ([…]) and [^35S]GTPγS (0.20 nM; Perkin Elmer, Shelton, Conn.). The prepared membrane solution (190 μl/well) was transferred to 96-shallow well polypropylene plates containing 10 μl of 20× concentrated stock solutions of the agonist [D-Ala^2, N-methyl-Phe^4 Gly-ol^5]-enkephalin (DAMGO) prepared in dimethyl sulfoxide (DMSO). Plates were incubated for 30 min at about 25° C. with shaking. Reactions were terminated by rapid filtration onto 96-well Unifilter GF/B filter plates (Perkin Elmer, Shelton, Conn.) using a 96-well tissue harvester (Perkin Elmer, Shelton, Conn.) followed by three filtration washes with 200 μl of ice-cold wash buffer (10 mM NaH2PO4, 10 mM Na2HPO4, pH 7.4). Filter plates were subsequently dried at 50° C. for 2-3 hours. BetaScint scintillation cocktail (Perkin Elmer, Shelton, Conn.) was added (50 μl/well) and plates were counted using a Packard Top-Count for 1 min/well. Data were analyzed using the sigmoidal dose-response curve fitting functions in GraphPad PRISM v. 3.0, or an in-house function for non-linear, sigmoidal dose-response curve-fitting.
μ GTP EC50 is the concentration of a compound providing 50% of the maximal response for the compound at a μ-opioid receptor.
μ GTP Emax (%) is the maximal effect elicited by a compound relative to the effect elicited by DAMGO, a standard μ agonist. Generally, the μ GTP Emax (%) value measures the efficacy of a compound to treat or prevent pain or other Conditions.
as §2

[4] = molecular target: T1, κ opioid receptor; assay: κ-opioid receptor [35S]GTPγS functional assay, U-2 OS cells; assay type: biochemical; settings: κ GTP; for EC50: read-out: Activity Response κ EC50 (nM) [mean ± SEM]; for Emax: relative to U69,593, read-out: Activity Response κ Emax (%)
[5] = molecular target: T2, μ-opioid receptors; assay: μ-opioid receptor [35S]GTPγS functional assay, U-2 OS cells; assay type: biochemical; settings: μ GTP; for EC50: read-out: Activity Response μ EC50 (nM) [mean ± SEM]; for Emax: relative to DAMGO, read-out: Activity Response μ Emax (%)

| SMILES | Ki [1] [nM] | EC50 [2] [nM] | Emax [2] [%] | EC50 [3] [nM] | Emax [3] [%] | EC50 [4] [nM] | Emax [4] [%] | EC50 [5] [nM] | Emax [5] [%] |
| --- | --- | --- | --- | --- | --- | --- | --- | --- | --- |
| CC(C)C[C@H](NC(=O)C[C@H]1C[C@@]2(O)[C@H]3Cc4ccc(O)cc4[C@@]2(CCN3CC2CC2)CC1=O)C(=O)O [Compound 19, (S)-2-(2-((4bR,7R,8aS,9R)-11-(cyclopropylmethyl)-3,8a-dihydroxy-6-oxo-6,7,8,8a,9,10-hexahydro-5H-9,4b-(epiminoethano)phenanthren-7-yl)acetamido)-4-methylpentanoic acid] | 146 ± 29.7 | 201 ± 25.9 | 41.3 ± 2.85 | 49.7 ± 7.48 | 37.5 ± 3.93 | – | – | – | – |
| O=C1C[C@]23CCN(CC4CC4)[C@H](Cc4ccc(O)cc42)[C@]3(O)C[C@@H]1CCO [Compound 54, (4bR,7S,8aS,9R)-11-(cyclopropylmethyl)-3,8a-dihydroxy-7-(2-hydroxyethyl)-8,8a,9,10-tetrahydro-5H-9,4b-(epiminoethano)phenanthren-6(7H)-one] | – | 5.02 ± 0.14 | 34.3 ± 0.67 | 14.2 ± 3.39 | 25 ± 2.04 | 4.82 ± 0.71 | 88.2 ± 2.53 | 1.81 ± 0.57 | 26.3 ± 2.33 |
| O=C(O)CC1(CC(=O)O)C[C@@]2(O)[C@H]3Cc4ccc(O)cc4[C@@]2(CCN3CC2CC2)CC1=O [Compound 12, 2,2′-((4bR,8aS,9R)-11-(cyclopropylmethyl)-3,8a-dihydroxy-6-oxo-6,7,8,8a,9,10-hexahydro-5H-9,4b-(epiminoethano)phenanthrene-7,7-diyl)diacetic acid] | 3410 ± 538 | – | – | > 200000 | – | – | – | – | – |
| CCOC(=O)C[C@H]1C[C@@]2(O)[C@H]3Cc4ccc(OC)cc4[C@@]2(CCN3CC2CC2)CC1=O [Compound 1, ethyl 2-((4bR,7R,8aS,9R)-11-(cyclopropylmethyl)-8a-hydroxy-3-methoxy-6-oxo-6,7,8,8a,9,10-hexahydro-5H-9,4b-(epiminoethano)phenanthren-7-yl)acetate] | 408 ± 34.1 | 5110 ± 1260 | 72 ± 3.21 | 3400 ± 584 | 59.3 ± 3.38 | – | – | – | – |
| COc1ccc2c(c1)[C@]13CCN(CC4CC4)[C@H](C2)[C@]1(O)C[C@H](CC(=O)N1CCC[C@H]1C(=O)O)C(=O)C3 [Compound 16, (S)-1-(2-((4bR,7R,8aS,9R)-11-(cyclopropylmethyl)-8a-hydroxy-3-methoxy-6-oxo-6,7,8,8a,9,10-hexahydro-5H-9,4b-(epiminoethano)phenanthren-7-yl)acetyl)pyrrolidine-2-carboxylic acid] | > 20000 | – | – | 6770 ± 1370 | 28.7 ± 1.86 | – | – | – | – |
| CC(C)CC[C@H]1C[C@@]2(O)[C@H]3Cc4ccc(O)cc4[C@@]2(CCN3CC2CC2)CC1=O [Compound 64, (4bR,7S,8aS,9R)-11-(cyclopropylmethyl)-3,8a-dihydroxy-7-isopentyl-8,8a,9,10-tetrahydro-5H-9,4b-(epiminoethano)phenanthren-6(7H)-one] | – | 4.3 ± 1.55 | 33 ± 1.73 | > 200000 | 1 | 4.71 ± 0.12 | 87.3 ± 2.6 | > 200000 | 7.5 |
| CN1CC[C@]23CC(=O)[C@@H](CC(=O)NCC4CC4)C[C@@]2(O)[C@H]1Cc1ccc(O)cc13 [Compound 84, N-(cyclopropylmethyl)-2-((4bR,7R,8aS,9R)-3,8a-dihydroxy-11-methyl-6-oxo-6,7,8,8a,9,10-hexahydro-5H-9,4b-(epiminoethano)phenanthren-7-yl)acetamide] | – | – | – | 1260 ± 301 | 57.7 ± 2.73 | – | – | – | – |
| COc1ccc2c(c1)[C@]13CCN(CC4CC4)[C@H](C2)[C@]1(O)CC(CC(=O)O)(CC(=O)O)C(=O)C3 [Compound 10, 2,2′-((4bR,8aS,9R)-11-(cyclopropylmethyl)-8a-hydroxy-3-methoxy-6-oxo-6,7,8,8a,9,10-hexahydro-5H-9,4b-(epiminoethano)phenanthrene-7,7-diyl)diacetic acid] | > 20000 | – | – | 14700 ± 1530 | 16 ± 2.65 | – | – | – | – |
| CC(C)CNC(=O)C[C@H]1C[C@@]2(O)[C@H]3Cc4ccc(O)cc4[C@@]2(CCN3C)CC1=O [Compound 82, 2-((4bR,7R,8aS,9R)-3,8a-dihydroxy-11-methyl-6-oxo-6,7,8,8a,9,10-hexahydro-5H-9,4b-(epiminoethano)phenanthren-7-yl)-N-isobutylacetamide] | – | – | – | 2330 ± 200 | 67.8 ± 4.01 | – | – | – | – |
| COc1ccc2c(c1)[C@]13CCN(CC4CC4)[C@H](C2)[C@]1(O)C[C@H](CC(=O)N[C@@H](C)C(=O)O)C(=O)C3 [Compound 13, (S)-2-(2-((4bR,7R,8aS,9R)-11-(cyclopropylmethyl)-8a-hydroxy-3-methoxy-6-oxo-6,7,8,8a,9,10-hexahydro-5H-9,4b-(epiminoethano)phenanthren-7-yl)acetamido)propanoic acid] | > 20000 | – | – | 4600 ± 471 | 66 ± 2.65 | – | – | – | – |
| COc1ccc2c(c1)[C@]13CCN(CC4CC4)[C@H](C2)[C@]1(O)C[C@H](CC(=O)N[C@@H](CC(C)C)C(=O)O)C(=O)C3 [Compound 18, (S)-2-(2-((4bR,7R,8aS,9R)-11-(cyclopropylmethyl)-8a-hydroxy-3-methoxy-6-oxo-6,7,8,8a,9,10-hexahydro-5H-9,4b-(epiminoethano)phenanthren-7-yl)acetamido)-4-methylpentanoic acid] | 15900 | – | – | 2750 ± 221 | 50 ± 1.53 | – | – | – | – |
